Experimental findings from patent US20030166290A1, “Low formaldehyde producing blood diluent” (priority 2002, published 2003) are described below.

This data set can be described thus: Formaldehyde production in test blood diluents containing antimicrobial agents (EPA Method 8315A). To be noted: when employed in the blood diluent of the invention. It is filed as physicochemical.

Description: Diluent components into which the listed antimicrobials were added were:
Each test diluent was assayed for formaldehyde production within about two weeks from time of production to determine if formaldehyde is produced. Different lots of the final diluent formulation were monitored for formaldehyde concentration over a year's time. […] This method entails derivitizing the diluent sample with 2,4-dinitrophenylhydrazine to convert the carbonyl groups of aldehydes present to the hydrazones. Each carbonyl compound present in the sample forms a separate hydrazone derivative and these individual derivatives are extracted from the diluent solution using an organic solvent. The individual hydrazone derivatives are separated and quantified by HPLC (High Performance Liquid Chromatography).

With `O=[N+]([O-])C1(Br)COCOC1` [5-bromo-5-nitro-1,3-dioxane], the “formaldehyde produced or contained” value is not above 1 ppm.
